According to patent publication US8895571B2, “Isoindolinone and pyrrolopyridinone derivatives as Akt inhibitors” (Incyte Corporation, priority 2011, dated 2014):

Experiments:
Full length Akt1 = target: T1, Full length Akt1 (Homo sapiens, UniProt P31749); assay: In vitro Akt kinase enzymatic assay (HTRF), Akt1; format: biochemical; settings: 0.4 nM Akt1, substrate solution with 5 mM ATP, 25° C. 1 hr
T1 construct: Full length Akt1 (cat #P2999); purchased PerkinElmer P2999
In short: (§1)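 Full-length enzyme (0.4 nM Akt1 or 0.6 nM Akt2/Akt3 in the enzyme solution) was combined with a substrate solution of 0.1 μM ULight-Crosstide plus 5 mM ATP in pH 7.8 HEPES/MgCl2/DTT/Tween20 buffer and reacted 1 hr at 25° C. The EDTA stop contained Eu anti-phospho-Crosstide; IC50 was fitted from 11-point HTRF inhibition curves.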

Full length Akt2 = target: T2, Full length Akt2 (Homo sapiens, UniProt P31751); assay: In vitro Akt kinase enzymatic assay (HTRF), Akt2; format: biochemical; settings: 0.6 nM Akt2, substrate solution with 5 mM ATP, 25° C. 1 hr
T2 construct: Full length Akt1 (cat #P2999), Akt2 (cat #PV3184); purchased PerkinElmer PV3184
T2 sequence (P31751 whole entry): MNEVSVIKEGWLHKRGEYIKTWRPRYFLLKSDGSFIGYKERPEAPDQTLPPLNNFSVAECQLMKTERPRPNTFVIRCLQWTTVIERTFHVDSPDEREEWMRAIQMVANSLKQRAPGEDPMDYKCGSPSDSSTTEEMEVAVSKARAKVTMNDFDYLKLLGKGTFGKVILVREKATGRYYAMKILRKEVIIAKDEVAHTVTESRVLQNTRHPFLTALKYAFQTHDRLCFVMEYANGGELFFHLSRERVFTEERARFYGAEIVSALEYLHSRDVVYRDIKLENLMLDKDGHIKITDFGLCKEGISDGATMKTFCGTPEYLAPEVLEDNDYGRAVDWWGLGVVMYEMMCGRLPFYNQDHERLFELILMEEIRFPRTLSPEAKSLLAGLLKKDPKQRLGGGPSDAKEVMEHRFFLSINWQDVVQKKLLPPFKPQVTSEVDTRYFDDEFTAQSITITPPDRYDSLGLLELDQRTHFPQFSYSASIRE
In short: as §1

Full length Akt3 = target: T3, Full length Akt3 (Homo sapiens, UniProt Q9Y243); assay: In vitro Akt kinase enzymatic assay (HTRF), Akt3; format: biochemical; settings: 0.6 nM Akt3, substrate solution with 5 mM ATP, 25° C. 1 hr
T3 construct: Full length Akt1 (cat #P2999), Akt2 (cat #PV3184), Akt3 (cat #PV3185); purchased PerkinElmer PV3185
T3 sequence (Q9Y243 whole entry): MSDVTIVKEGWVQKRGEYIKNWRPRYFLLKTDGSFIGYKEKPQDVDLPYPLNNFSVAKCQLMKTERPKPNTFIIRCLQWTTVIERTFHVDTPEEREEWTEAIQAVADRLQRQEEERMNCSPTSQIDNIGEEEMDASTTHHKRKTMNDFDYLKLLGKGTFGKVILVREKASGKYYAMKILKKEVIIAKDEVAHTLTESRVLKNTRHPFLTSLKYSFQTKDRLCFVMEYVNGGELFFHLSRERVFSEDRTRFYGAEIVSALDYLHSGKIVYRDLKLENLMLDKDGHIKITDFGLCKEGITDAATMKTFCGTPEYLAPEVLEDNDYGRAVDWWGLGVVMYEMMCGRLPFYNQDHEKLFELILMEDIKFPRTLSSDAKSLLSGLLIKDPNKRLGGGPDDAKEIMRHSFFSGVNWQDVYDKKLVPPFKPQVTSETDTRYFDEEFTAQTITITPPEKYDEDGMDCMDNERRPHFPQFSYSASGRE
In short: as §1

Full length PKA = target: T4, Full length PKA (Homo sapiens, UniProt P17612); assay: PKA in vitro enzymatic assay (HTRF); format: biochemical; settings: 0.035 nM enzyme solution, substrate solution with 5 mM ATP, 25° C. 1 hr
T4 construct: Full length PKA (cat #P2912); purchased Invitrogen P2912
In short: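 Reaction buffer was 50 mM HEPES pH 7.8, 10 mM MgCl2, 5 mM DTT and 0.005% Tween20. Enzyme solution was 0.035 nM, and substrate solution was 0.1 μM fluorescein-CREBtide with 5 mM ATP. After 1 h at 25°C, EDTA plus Tb anti-pS133 antibody was added, TR-FRET was read, and IC50 was fitted from 11-point, 3-fold % inhibition curves.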

[1] = system: LNCaP cells (human prostate tumor cell line); assay: Akt LNCaP proliferation assay (MTS); format: cell-based; settings: 2% fetal bovine serum, 48 hours, class symbols
Protocol: LNCaP cells (human prostate tumor cell line) were plated in 96 well plates (COSTAR, Corning, N.Y.) in 50 μL at 10,000 cells/well in RPMI (Media Tech, Manassas, Va.), 2% fetal bovine serum (Hyclone/Thermo, Logan, Utah) and incubated overnight at 37° C., 5% CO2. […] of compound solution were added at final concentrations of 1000 nM to 0.5 nM in 3 fold dilutions for IC50 determination and plates further incubated for 48 hours. 100 μL of Cell Titer 96® Aqueous reagent, from an MTS colorimetric method for determining the number of viable cells in proliferation (Cell titer 96, Promega, Madison, Wis.) was added for 2 hours at 37° C., 5% CO2. Each plate was mixed well and read on a SpectroMax M5 automated plate reader (Molecular Devices, Sunnyvale Calif.). The ability of the compound to inhibit proliferation was reported as the inhibitor concentration required for 50% inhibition (IC50 values) of total cell proliferation. See Table 8 for data related to compounds of the examples.

T1 sequence (P31749 whole entry): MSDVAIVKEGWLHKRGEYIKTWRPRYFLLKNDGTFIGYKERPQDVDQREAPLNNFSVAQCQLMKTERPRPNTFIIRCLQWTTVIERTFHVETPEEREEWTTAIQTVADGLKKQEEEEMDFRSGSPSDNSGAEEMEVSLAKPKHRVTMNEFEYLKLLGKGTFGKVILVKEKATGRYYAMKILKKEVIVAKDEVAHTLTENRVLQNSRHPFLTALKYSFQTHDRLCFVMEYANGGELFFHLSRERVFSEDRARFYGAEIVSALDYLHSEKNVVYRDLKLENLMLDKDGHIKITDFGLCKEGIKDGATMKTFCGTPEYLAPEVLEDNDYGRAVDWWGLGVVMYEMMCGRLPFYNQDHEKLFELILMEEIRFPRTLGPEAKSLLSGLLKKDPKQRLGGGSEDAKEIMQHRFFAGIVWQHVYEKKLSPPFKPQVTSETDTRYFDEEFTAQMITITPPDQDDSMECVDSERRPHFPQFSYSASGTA

An IC50 (Full length Akt1) of less than 0.5 µM, an IC50 (Full length Akt2) of less than 0.5 µM and an IC50 (Full length Akt3) of less than 0.5 µM were found for `Cn1ncc(COCC2CC2)c1-c1ccc2c(c1)CN([C@H](CN)Cc1cc(F)cc(F)c1)C2=O` [Example 48, 2-[(1S)-2-amino-1-(3,5-difluorobenzyl)ethyl]-5-[4-(cyclopropylmethoxymethyl)-1-methyl-1H-pyrazol-5-yl]isoindolin-1-one] in this work. The IC50 (Full length PKA) was 0.5 to 5 µM and the IC50 [1] was less than 0.5 µM.

An IC50 (Full length Akt1) of less than 0.5 µM, an IC50 (Full length Akt2) of 0.5 to 5 µM and an IC50 (Full length Akt3) of less than 0.5 µM were found for `CSCc1cnn(C)c1-c1ccc2c(c1)CN([C@H](CN)Cc1cc(F)cc(F)c1)C2=O` [Example 49, 2-[(1S)-2-amino-1-(3,5-difluorobenzyl)ethyl]-5-[4-(methylthio)methyl-1-methyl-1H-pyrazol-5-yl]isoindolin-1-one] in this work. For the same compound, the IC50 (Full length PKA) was greater than 5 µM and the IC50 [1] was 0.5 to 5 µM.

An IC50 (Full length Akt1) of less than 0.5 µM, an IC50 (Full length Akt2) of less than 0.5 µM and an IC50 (Full length Akt3) of less than 0.5 µM were found for `CCSCc1cnn(C)c1-c1ccc2c(c1)CN([C@H](CN)Cc1cc(F)cc(F)c1)C2=O` [Example 50, 2-[(1S)-2-amino-1-(3,5-difluorobenzyl)ethyl]-5-[4-(ethylthio)methyl-1-methyl-1H-pyrazol-5-yl]isoindolin-1-one] in this work. The IC50 (Full length PKA) was greater than 5 µM and the IC50 [1] was less than 0.5 µM.

An IC50 (Full length Akt1) of less than 0.5 µM, an IC50 (Full length Akt2) of less than 0.5 µM and an IC50 (Full length Akt3) of less than 0.5 µM were found for `Cn1ncc(F)c1-c1ccc2c(c1)CN([C@H](CN)Cc1cc(F)cc(F)c1)C2=O` [Example 51, 2-[(1S)-2-amino-1-(3,5-difluorobenzyl)ethyl]-5-(4-fluoro-1-methyl-1H-pyrazol-5-yl)isoindolin-1-one] in this work. The IC50 (Full length PKA) was less than 0.5 µM and the IC50 [1] was less than 0.5 µM.

An IC50 (Full length Akt1) of less than 0.5 µM, an IC50 (Full length Akt2) of less than 0.5 µM and an IC50 (Full length Akt3) of less than 0.5 µM were found for `Cn1ncc(Br)c1-c1ccc2c(c1)CN([C@H](CN)Cc1cc(F)cc(F)c1)C2=O` [Example 52, 2-[(1S)-2-amino-1-(3,5-difluorobenzyl)ethyl]-5-(4-bromo-1-methyl-1H-pyrazol-5-yl)isoindolin-1-one] in this work. For the same compound, the IC50 (Full length PKA) was 0.5 to 5 µM and the IC50 [1] was less than 0.5 µM.

An IC50 (Full length Akt1) of less than 0.5 µM, an IC50 (Full length Akt2) of less than 0.5 µM and an IC50 (Full length Akt3) of less than 0.5 µM were found for `Cn1ncc(C#N)c1-c1ccc2c(c1)CN([C@H](CN)Cc1cc(F)cc(F)c1)C2=O` [Example 53, 2-[(1S)-2-amino-1-(3,5-difluorobenzyl)ethyl]-5-(4-cyano-1-methyl-1H-pyrazol-5-yl)isoindolin-1-one] in this work. The IC50 (Full length PKA) was 0.5 to 5 µM and the IC50 [1] was less than 0.5 µM.

An IC50 (Full length Akt1) of less than 0.5 µM, an IC50 (Full length Akt2) of less than 0.5 µM and an IC50 (Full length Akt3) of less than 0.5 µM were found for `Cn1ncc(C#CC(C)(C)O)c1-c1ccc2c(c1)CN([C@H](CN)Cc1cc(F)cc(F)c1)C2=O` [Example 54, 2-[(1S)-2-amino-1-(3,5-difluorobenzyl)ethyl]-5-[4-(3-hydroxy-3-methylbut-1-yn-1-yl)-1-methyl-1H-pyrazol-5-yl]isoindolin-1-one] in this work. The IC50 (Full length PKA) was greater than 5 µM and the IC50 [1] was less than 0.5 µM.

An IC50 (Full length Akt1) of less than 0.5 µM, an IC50 (Full length Akt2) of less than 0.5 µM and an IC50 (Full length Akt3) of less than 0.5 µM were found for `Cn1nccc1-c1ccc2c(c1)CN([C@H](CN)Cc1ccccc1)C2=O` [Example 55, 2-[(1S)-2-amino-1-benzyl-ethyl]-5-(1-methyl-1H-pyrazol-5-yl)isoindolin-1-one] in this work. It also gave an IC50 (Full length PKA) greater than 5 µM and an IC50 [1] of less than 0.5 µM.

An IC50 (Full length Akt1) of less than 0.5 µM, an IC50 (Full length Akt2) of less than 0.5 µM and an IC50 (Full length Akt3) of less than 0.5 µM were found for `Cn1ncc(Cl)c1-c1ccc2c(c1)CN([C@H](CN)Cc1ccccc1)C2=O` [Example 56, 2-[(1S)-2-amino-1-benzyl-ethyl]-5-(4-chloro-1-methyl-1H-pyrazol-5-yl)isoindolin-1-one] in this work. For the same compound, the IC50 (Full length PKA) was 0.5 to 5 µM and the IC50 [1] was less than 0.5 µM.

An IC50 (Full length Akt1) of less than 0.5 µM, an IC50 (Full length Akt2) of less than 0.5 µM and an IC50 (Full length Akt3) of less than 0.5 µM were found for `Cn1ncc(Br)c1-c1ccc2c(c1)CN([C@H](CN)Cc1ccccc1)C2=O` [Example 57, 2-[(1S)-2-amino-1-benzyl-ethyl]-5-(4-bromo-1-methyl-1H-pyrazol-5-yl)isoindolin-1-one] in this work. It also gave an IC50 (Full length PKA) greater than 5 µM and an IC50 [1] of less than 0.5 µM.
